# Where “and” joins values, the source holds several entries; their conditions need not be identical. Equal values may be shown once.
# What was measured:
# [1] = target: T1, Type-2 angiotensin II receptor (Homo sapiens) (UniProt P50052); test: In vitro antagonist activity against the Angiotensin II (type 2) receptor.; format: functional
# T1 sequence (whole entry): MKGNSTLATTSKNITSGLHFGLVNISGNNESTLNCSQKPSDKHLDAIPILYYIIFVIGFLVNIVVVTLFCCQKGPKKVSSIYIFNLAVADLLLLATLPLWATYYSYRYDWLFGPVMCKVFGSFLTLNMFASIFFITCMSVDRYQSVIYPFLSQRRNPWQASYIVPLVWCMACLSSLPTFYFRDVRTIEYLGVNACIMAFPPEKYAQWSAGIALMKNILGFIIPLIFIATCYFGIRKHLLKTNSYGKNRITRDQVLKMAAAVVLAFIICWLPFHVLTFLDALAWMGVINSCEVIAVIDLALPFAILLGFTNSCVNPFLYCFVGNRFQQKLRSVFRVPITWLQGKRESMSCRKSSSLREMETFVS
# [2] = target: Angiotensin II receptor (Rattus norvegicus) (UniProt P29089+P25095+P35351); test: Duration of action as time for pressor response to fall below 30% for a single bolus by intravenous dose; format: functional, organism-based
# Rattus norvegicus [3] = test: Compound was evaluated in vivo for inhibition of the AII pressor response in normotensive rat at dose 1 mg/kg, iv after 1 hour; format: functional
# [4] = target: T2, Type-1 angiotensin II receptor (Oryctolagus cuniculus, UniProt P34976); test: Ability to displace [125I]Sar1-Ile8-AII from angiotensin II receptor, type 1 in rabbit aorta in presence of 0.2% bovine serum albumin (BSA) was determined in vitro; format: tissue-based
# T2 sequence (P34976 whole entry): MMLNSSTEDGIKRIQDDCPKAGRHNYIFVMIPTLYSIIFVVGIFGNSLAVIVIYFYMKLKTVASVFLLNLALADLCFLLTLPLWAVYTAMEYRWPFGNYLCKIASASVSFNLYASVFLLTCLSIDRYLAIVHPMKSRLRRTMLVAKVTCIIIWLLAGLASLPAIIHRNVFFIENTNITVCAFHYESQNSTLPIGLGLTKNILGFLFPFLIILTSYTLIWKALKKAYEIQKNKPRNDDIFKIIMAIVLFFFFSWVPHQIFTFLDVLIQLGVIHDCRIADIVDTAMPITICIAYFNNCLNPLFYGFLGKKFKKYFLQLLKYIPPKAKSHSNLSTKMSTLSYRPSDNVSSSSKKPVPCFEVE
# Rattus norvegicus [5] = test: Compound was evaluated in vivo for inhibition of the AII pressor response in normotensive rat at dose 1 mg/kg, iv after 0.1 hour; format: functional
# Rattus norvegicus [6] = test: Compound was evaluated in vivo for inhibition of the AII pressor response in normotensive rat at dose 1 mg/kg, iv after 0.2 hour; format: functional
# [7] = target: T2, Type-1 angiotensin II receptor; test: Displacement of [125I]Sar1-Ile8-AII (without BSA) from type 1 Angiotensin II receptor of rabbit aorta; format: tissue-based
# Rattus norvegicus [8] = test: Compound was evaluated in vivo for inhibition of the AII pressor response in normotensive rat at dose 0.1 mg/kg, iv after 2.5 hour; format: functional
# Rattus norvegicus [9] = test: Compound was evaluated in vivo for inhibition of the AII pressor response in normotensive rat at dose 0.1 mg/kg, p.o. after >3 hour; format: functional; settings: route oral
# Rattus norvegicus [10] = test: The duration of action is expressed as the time for the % inhibition of pressor response to fall below 30% for a single bolus of the drug administered perorally.; format: functional
# Rattus norvegicus [11] = test: Compound was evaluated in vivo for inhibition of the AII pressor response in normotensive rat at dose 0.03 mg/kg, iv; format: functional
# Rattus norvegicus [12] = test: Compound was evaluated in vivo for inhibition of the AII pressor response in normotensive rat at dose 0.3 mg/kg, iv after 4 hour; format: functional
# Rattus norvegicus [13] = test: Compound was evaluated in vivo for inhibition of the AII pressor response in normotensive rat at dose 0.03 mg/kg, po; format: functional
# Rattus norvegicus [14] = test: Compound was evaluated in vivo for inhibition of the AII pressor response in normotensive rat at dose 1 mg/kg, p.o. after >5 hour; format: functional; settings: route oral
# Rattus norvegicus [15] = test: Compound was evaluated in vivo for inhibition of the AII pressor response in normotensive rat at dose 0.3 mg/kg, p.o. after >3.5 hour; format: functional; settings: route oral
# Rattus norvegicus [16] = test: Compound was evaluated in vivo for inhibition of the AII pressor response in normotensive rat at dose 1 mg/kg, iv after >6 hour; format: functional
# Rattus norvegicus [17] = test: Compound was evaluated in vivo for inhibition of the AII pressor response in normotensive rat at dose 1 mg/kg, iv after 0.5 hour; format: functional
# Rattus norvegicus [18] = test: Compound was evaluated in vivo for inhibition of the AII pressor response in normotensive rat at dose 3 mg/kg, iv after >6 hour; format: functional
# Rattus norvegicus [19] = test: Compound was evaluated in vivo for inhibition of the AII pressor response in normotensive rat at dose 1 mg/kg, iv after 0.3 hour; format: functional
# Rattus norvegicus [20] = test: Compound was evaluated in vivo for inhibition of the AII pressor response in normotensive rat at dose 3 mg/kg, p.o. after >6 hour; format: functional; settings: route oral
# Rattus norvegicus [21] = test: Compound was evaluated in vivo for inhibition of the AII pressor response in normotensive rat at dose 3 mg/kg, iv after 2.5 hour; format: functional
# Rattus norvegicus [22] = test: Compound was evaluated in vivo for inhibition of the AII pressor response in normotensive rat at dose 3 mg/kg, p.o. after 4.2 hour; format: functional; settings: route oral
# Rattus norvegicus [23] = test: Compound was evaluated in vivo for inhibition of the AII pressor response in normotensive rat at dose 1 mg/kg, iv; format: functional
# Rattus norvegicus [24] = test: Compound was evaluated in vivo for inhibition of the AII pressor response in normotensive rat at dose 1 mg/kg, iv after <0.5 hour; format: functional
# Rattus norvegicus [25] = test: Compound was evaluated in vivo for inhibition of the AII pressor response in normotensive rat at dose 1 mg/kg, iv after 1.8 hour; format: functional
# Rattus norvegicus [26] = test: Compound was evaluated in vivo for inhibition of the AII pressor response in normotensive rat at dose 0.3 mg/kg, p.o. after 3.5 hour; format: functional; settings: route oral
Activity [1] [nM],Duration [2],IC50 [4] [nM],IC50 [7] [nM],Compound,further results
> 1000,1 h,4.3,,CCCCc1nc2ccc(NC(=O)OCc3ccccc3)cc2c(=O)n1Cc1ccc(-c2ccccc2-c2nn[nH]n2)cc1,inhibition in vivo at 1 mg/kg (Rattus norvegicus [3]): 84%
,,940,,O=C(O)c1ccccc1-c1ccc(-c2nc3ccc([N+](=O)[O-])cc3c(=O)n2Cc2ccc(-c3ccccc3-c3nnn[nH]3)cc2)cc1,
> 1000,0.1 h,7,,CCCCc1nc2ccc(SC)cc2c(=O)n1Cc1ccc(-c2ccccc2-c2nn[nH]n2)cc1,inhibition in vivo at 1 mg/kg (Rattus norvegicus [5]): 44%
> 1000,0.2 h,,,CCCCc1nc2cc(OC)c(OC)cc2c(=O)n1Cc1ccc(-c2ccccc2-c2nn[nH]n2)cc1,inhibition in vivo at 1 mg/kg (Rattus norvegicus [6]): 30%
,,,0.58,CCCCc1nc2ccc(N(C)C(=O)N(C)C(C)C)cc2c(=O)n1Cc1ccc(-c2ccccc2-c2nnn[nH]2)cc1,
> 1000,> 6 h and 4 h and 2.5 h,,,CCCCc1nc2ccc(NC(=O)N(C)C(C)C)cc2c(=O)n1Cc1ccc(-c2ccccc2-c2nn[nH]n2)cc1,inhibition in vivo at 0.1 mg/kg (Rattus norvegicus [8]): 85%; inhibition in vivo at 0.1 mg/kg (Rattus norvegicus [9]): 58%; Duration (Rattus norvegicus [10]): >5 h and >3.5 h and >3 h; inhibition in vivo at 0.03 mg/kg (Rattus norvegicus [11]): 15%; inhibition in vivo at 0.3 mg/kg (Rattus norvegicus [12]): 96%; inhibition in vivo at 0.03 mg/kg (Rattus norvegicus [13]): 16%; inhibition in vivo at 1 mg/kg (Rattus norvegicus [14]): 84%; inhibition in vivo at 0.3 mg/kg (Rattus norvegicus [15]): 80%; inhibition in vivo at 1 mg/kg (Rattus norvegicus [16]): 94%
> 1000,0.5 h,3,7.6,CCCCc1nc2ccc(S(C)(=O)=O)cc2c(=O)n1Cc1ccc(-c2ccccc2-c2nn[nH]n2)cc1,inhibition in vivo at 1 mg/kg (Rattus norvegicus [17]): 79%
> 1000,,5,4,CCCCc1nc2ccc(C(C)C)cc2c(=O)n1Cc1ccc(-c2ccccc2-c2nn[nH]n2)cc1,inhibition in vivo at 3 mg/kg (Rattus norvegicus [18]): 90%; Duration (Rattus norvegicus [10]): >6 h; inhibition in vivo at 1 mg/kg (Rattus norvegicus [19]): 34%; inhibition in vivo at 3 mg/kg (Rattus norvegicus [20]): 72%
> 1000,,,,CCCCc1nc2ccc(C)cc2c(=O)n1Cc1ccc(-c2ccccc2-c2nn[nH]n2)cc1,inhibition in vivo at 3 mg/kg (Rattus norvegicus [21]): 76%; Duration (Rattus norvegicus [10]): 4.2 h; inhibition in vivo at 3 mg/kg (Rattus norvegicus [22]): 64%; inhibition in vivo at 1 mg/kg (Rattus norvegicus [23]): 28%
,,2,,CCCCc1nc2ccc(NC)cc2c(=O)n1Cc1ccc(-c2ccccc2-c2nnn[nH]2)cc1,
,,92,,Cc1ccc2nc(-c3ccc(-c4ccccc4C(=O)O)cc3)n(Cc3ccc(-c4ccccc4-c4nn[nH]n4)cc3)c(=O)c2c1,
,,,5,CCCCc1nc2ccc(-c3ccccn3)cc2c(=O)n1Cc1ccc(-c2ccccc2-c2nnn[nH]2)cc1,
> 1000,> 0.5 h,5,,CCCCc1nc2ccc(N(C)C)cc2c(=O)n1Cc1ccc(-c2ccccc2-c2nn[nH]n2)cc1,inhibition in vivo at 1 mg/kg (Rattus norvegicus [24]): 55%
,,3.4,1.6,CCCCc1nc2ccc(N(C)C(=O)OCC(C)C)cc2c(=O)n1Cc1ccc(-c2ccccc2-c2nnn[nH]2)cc1,
> 1000,1.8 h,1,0.9,CCCCc1nc2ccc([S+](C)[O-])cc2c(=O)n1Cc1ccc(-c2ccccc2-c2nn[nH]n2)cc1 (stereo not given),inhibition in vivo at 1 mg/kg (Rattus norvegicus [25]): 89%
> 1000,,,,CCCCc1nc2ccc(N(C)C(=O)OCC(C)C)cc2c(=O)n1Cc1ccc(-c2ccccc2-c2nn[nH]n2)cc1,Duration (Rattus norvegicus [10]): 3.5 h; inhibition in vivo at 0.3 mg/kg (Rattus norvegicus [26]): 60%; inhibition in vivo at 1 mg/kg (Rattus norvegicus [16]): 72%
,,27,,CCCCc1nc2ccc(O)cc2c(=O)n1Cc1ccc(-c2ccccc2-c2nnn[nH]2)cc1,
